# Test results published in ChEMBL document CHEMBL1135268, “Design, synthesis and in vitro evaluation of potent, novel, small molecule inhibitors of plasminogen activator inhibitor-1” (Bioorg Med Chem Lett, 2002).
# Biological target: T1, Plasminogen activator inhibitor 1 (Homo sapiens, UniProt P05121)
# Experiment: Inhibitory activity against human plasminogen activator inhibitor-1 (PAI-1) evaluated by chromogenic assay.
# T1 sequence (P05121 whole entry): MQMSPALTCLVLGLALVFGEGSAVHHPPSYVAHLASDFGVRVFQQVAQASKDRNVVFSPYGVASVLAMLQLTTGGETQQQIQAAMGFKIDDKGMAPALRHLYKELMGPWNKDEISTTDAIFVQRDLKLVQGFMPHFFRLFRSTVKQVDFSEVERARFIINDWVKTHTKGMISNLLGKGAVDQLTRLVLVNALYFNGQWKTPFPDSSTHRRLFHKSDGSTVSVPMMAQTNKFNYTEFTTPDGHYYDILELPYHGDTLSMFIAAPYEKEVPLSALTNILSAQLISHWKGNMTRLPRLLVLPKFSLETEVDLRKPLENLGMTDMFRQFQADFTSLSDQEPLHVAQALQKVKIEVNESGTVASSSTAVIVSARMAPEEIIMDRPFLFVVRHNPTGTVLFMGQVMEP
row,IC50 [µM],SMILES
1,1.01,O=C(Nc1ccc(OCCCCCCCn2cnnn2)cc1)c1c(O)c2cc(-c3cc4ccccc4s3)ccc2[nH]c1=O
2,0.5,O=C(O)CCCCCCCOc1ccc(NC(=O)c2c(O)c3cc(-c4cc5ccccc5s4)ccc3[nH]c2=O)cc1
3,0.2,O=C(O)CCCCCCCOc1ccc(/C=c2/[nH]c(=O)/c(=C/c3ccc(NC(=O)c4cccs4)cc3)[nH]c2=O)cc1
4,> 50,O=C(O)CCCCCCCOc1ccc(NC(=O)c2c(O)c3cccc(-c4cccc5ccccc45)c3[nH]c2=O)cc1
5,> 50,O=C(O)CCCCCCCOc1ccc(NC(=O)C2=C(O)CN(Cc3ccccc3)C2=O)cc1
6,49,O=C(O)CCCCCCCOc1ccc(NC(=O)C2=C(O)C(c3ccccc3)NC2=O)cc1 (stereo not drawn)
7,> 50,O=C(O)CCCCCCCOc1ccc(NC(=O)C2=C(O)C(Cc3ccc(O)cc3)NC2=O)cc1 (stereo not drawn)
8,30,COc1ccc(-c2cccc3c(O)c(C(=O)Nc4ccc(OCCCCCCCC(=O)O)cc4)c(=O)[nH]c23)cc1
9,> 20,Nc1ccc2nc(O)c(C(=O)Nc3ccc(OCCCCCCCC(=O)O)cc3)c(O)c2c1
10,2.2,O=C(O)CCCCCCCOc1ccc(NC(=O)c2c(O)nc3ccc(I)cc3c2O)cc1
11,0.89,Cc1ccc(N2CC(O)=C(C(=O)Nc3ccc(OCCCCCCCn4cnnn4)cc3)C2=O)cc1
12,> 50,CC1C(O)=C(C(=O)Nc2ccc(OCCCCCCCC(=O)O)cc2)C(=O)N1c1ccccc1 (stereo not drawn)
13,1.95,O=C(O)CCCCCCCOc1ccc(NC(=O)c2c(O)nc3ccc(Cl)cc3c2O)cc1
14,> 50,COc1ccccc1N1CC(O)=C(C(=O)Nc2ccc(OCCCCCCCC(=O)O)cc2)C1=O
15,0.3,O=C(O)CCCCCCCOc1ccc(NC(=O)c2c(O)c3ccc(-c4cc5ccccc5s4)cc3[nH]c2=O)cc1
16,1.85,O=C(O)CCCCCCCOc1ccc(NC(=O)c2c(O)c3ccccc3[nH]c2=O)cc1
17,5,O=C(O)CCCCCCCOc1ccc(NC(=O)C2=C(O)CN(c3ccc(Cl)cc3)C2=O)cc1
18,0.9,N#Cc1ccc2c(O)c(C(=O)Nc3ccc(OCCCCCCCC(=O)O)cc3)c(=O)[nH]c2c1
19,13,O=C(O)CCCCCCCOc1ccc(NC(=O)C2=C(O)CN(c3ccc(Cl)c(Cl)c3)C2=O)cc1
20,0.51,O=C(O)CCCCCCCOc1ccc(NC(=O)c2c(O)nc3ccc(-c4csc5ccccc45)cc3c2O)cc1
21,0.67,O=C(O)CCCCCCCOc1ccc(NC(=O)c2c(O)c3cc(-c4ccc5ccccc5c4)ccc3[nH]c2=O)cc1
22,> 50,COC(=O)CCCCCCCOc1ccc(NC(=O)C2=C(O)CN(c3ccc(Cl)cc3)C2=O)cc1
23,3.66,COc1ccc(N2CC(O)=C(C(=O)Nc3ccc(OCCCCCCCC(=O)O)cc3)C2=O)cc1
24,3.6,O=C(O)CCCCCCCOc1ccc(NC(=O)c2c(O)nc3ccc([N+](=O)[O-])cc3c2O)cc1

row,IC50 [µM],SMILES
1,4,O=C(O)CCCCCCCOc1ccc(NC(=O)C2=C(O)CN(c3ccc4ccccc4c3)C2=O)cc1
2,1.95,Cc1ccc(N2CC(O)=C(C(=O)Nc3ccc(OCCCCCCCC(=O)O)cc3)C2=O)cc1
3,3,O=C(O)CCCCCCCOc1ccc(NC(=O)c2c(O)c3c(Cl)cccc3[nH]c2=O)cc1
4,2,O=C(O)CCCCCCCOc1ccc(NC(=O)c2c(O)c3cc(-c4ccc(Cl)cc4)ccc3[nH]c2=O)cc1
5,7,O=C(O)CCCCCCCOc1ccc(NC(=O)c2c(O)c3c(I)cccc3[nH]c2=O)cc1
6,21,O=C(O)CCCCCCCOc1ccc(NC(=O)C2=C(O)CN(c3ccccc3)C2=O)cc1
7,> 30,Nc1ccc2c(O)c(C(=O)Nc3ccc(OCCCCCCCC(=O)O)cc3)c(O)nc2c1
8,7.9,O=C(O)CCCCCCCOc1ccc(NC(=O)c2c(O)c3c([N+](=O)[O-])cccc3[nH]c2=O)cc1
9,1.8,CCCCCc1ccc2[nH]c(=O)c(C(=O)Nc3ccc(OCCCCCCCC(=O)O)cc3)c(O)c2c1
10,1.03,O=C(O)CCCCCCCOc1ccc(NC(=O)c2c(O)c3ccc(C(F)(F)F)cc3[nH]c2=O)cc1
11,1.99,O=C(O)CCCCCCCOc1ccc(NC(=O)C2=C(O)CN(c3ccc(Br)cc3)C2=O)cc1
12,4.9,O=C(O)CCCCCCCOc1ccc(NC(=O)c2c(O)c3cc(F)ccc3[nH]c2=O)cc1
13,4.25,Nc1cccc2nc(O)c(C(=O)Nc3ccc(OCCCCCCCC(=O)O)cc3)c(O)c12
14,1.65,COc1cc2[nH]c(=O)c(C(=O)Nc3ccc(OCCCCCCCC(=O)O)cc3)c(O)c2cc1OC
15,17.9,COC(=O)c1cccc(N2CC(O)=C(C(=O)Nc3ccc(OCCCCCCCC(=O)O)cc3)C2=O)c1
16,0.69,O=C(Nc1ccc(OCCCCCCCn2cnnn2)cc1)C1=C(O)CN(c2ccc(Cl)cc2)C1=O
17,> 50,O=C(O)CCCCCCCOc1ccc(NC(=O)C2=C(O)CN(c3ccccc3Cl)C2=O)cc1
18,> 50,CC(=O)Nc1ccc(N2CC(O)=C(C(=O)Nc3ccc(OCCCCCCCC(=O)O)cc3)C2=O)cc1
19,2.35,CC(C)c1ccc(N2CC(O)=C(C(=O)Nc3ccc(OCCCCCCCC(=O)O)cc3)C2=O)cc1
20,> 50,O=C(O)CCCCCCCOc1ccc(NC(=O)C2=C(O)CN(c3cccc4ccccc34)C2=O)cc1
21,0.6,O=C(O)CCCCCCCOc1ccc(NC(=O)c2c(O)c3ccc(-c4ccc5ccccc5c4)cc3[nH]c2=O)cc1
22,> 50,O=C(O)CCCCCCCOc1ccc(NC(=O)C2=C(O)CN(c3ccc(N4CCOCC4)cc3)C2=O)cc1
23,4.25,O=C(O)CCCCCCCOc1ccc(NC(=O)C2=C(O)CN(c3ccc([N+](=O)[O-])cc3)C2=O)cc1
24,2.35,O=C(O)CCCCCCCOc1ccc(NC(=O)c2c(O)nc3cc(F)c(F)cc3c2O)cc1

# Biological target: T1, Plasminogen activator inhibitor 1
# Experiment: Inhibitory activity against human plasminogen activator inhibitor-1 (PAI-1) evaluated by complex assay.
row,IC50 [µM],SMILES
1,0.29,O=C(Nc1ccc(OCCCCCCCn2cnnn2)cc1)c1c(O)c2cc(-c3cc4ccccc4s3)ccc2[nH]c1=O
2,0.51,O=C(O)CCCCCCCOc1ccc(/C=c2/[nH]c(=O)/c(=C/c3ccc(NC(=O)c4cccs4)cc3)[nH]c2=O)cc1
3,0.83,Cc1ccc(N2CC(O)=C(C(=O)Nc3ccc(OCCCCCCCn4cnnn4)cc3)C2=O)cc1
4,0.94,O=C(O)CCCCCCCOc1ccc(NC(=O)c2c(O)nc3ccc(-c4csc5ccccc45)cc3c2O)cc1
5,0.3,O=C(Nc1ccc(OCCCCCCCn2cnnn2)cc1)C1=C(O)CN(c2ccc(Cl)cc2)C1=O
